Ki data for one compound are collected here from US10894798B2, “Substituted dihydropyrrolopyrazole derivative” (UBE INDUSTRIES, LTD., priority 2015, dated 2021).

Holding throughout (assay type): biochemical
The target of one assay is T1, CDK7 (Homo sapiens, UniProt P50613).
T1 construct: purchased Carna Biosciences, Inc. 04-108
Description: CDK7 enzyme inhibition test. The conditions noted are these: [γ-33P]ATP, MBP substrate, 60 min preincubation at 25°C; Ki=IC50/(1+S/Km); read-out: Ki value of CDK7 inhibitory activity. The procedure, abridged: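 Commercial human CDK7 with myelin basic protein substrate in HEPES pH 7.4 buffer with DTT, Triton X-100, MgCl2; compound preincubated 60 min at 25° C, then reaction run 20 min at 30° C after adding [γ-^33P]ATP (500 μM solution). TCA-precipitated ^33P-MBP counted by scintillation; IC50 converted to Ki via Ki=IC50/(1+S/Km).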

In another assay the target is T2, CDK2 (Homo sapiens, UniProt P24941).
T2 construct: purchased Invitrogen Corp. PV3267
Description: CDK2 enzyme inhibition test. The conditions noted are these: [γ-33P]ATP, MBP substrate; Ki=IC50/(1+S/Km); read-out: Ki value of CDK2 inhibitory activity. In short, it runs like this:
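Commercial CDK2 phosphorylated MBP with [γ-33P]ATP (500 μM solution before mixing) in HEPES pH 7.4 buffer with DTT, Triton X-100 and MgCl2 for 20 min at 30 °C. TCA-precipitated 33P-MBP was counted by scintillation to give the IC50. Ki = IC50/(1+S/Km), with S the ATP concentration in the reaction.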

The target in a further assay is T3, PLK1 (Homo sapiens, UniProt P53350).
T3 construct: purchased Carna Biosciences, Inc. 05-157
Description: PLK1 enzyme (polo-like kinase) inhibition test. The note with it: [γ-33P]ATP, casein substrate; Ki=IC50/(1+S/Km); read-out: Ki value of PLK1 inhibitory activity. In short, it runs like this: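 Recombinant PLK1 phosphorylates casein with [γ-^33P]ATP in MOPS buffer (pH 7.0) containing DTT and magnesium acetate, 20 min at 30° C. Reaction stopped with TCA; washed precipitate counted by liquid scintillation. IC50 for inhibition of ^33P incorporation into casein, converted to Ki via Ki=IC50/(1+S/Km).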

Where only a bound is given, the exact number is not on record here.

By Ki is commonly meant a dissociation constant, usually derived from enzyme kinetics or from competition with a known ligand.

T1 sequence (P50613 whole entry): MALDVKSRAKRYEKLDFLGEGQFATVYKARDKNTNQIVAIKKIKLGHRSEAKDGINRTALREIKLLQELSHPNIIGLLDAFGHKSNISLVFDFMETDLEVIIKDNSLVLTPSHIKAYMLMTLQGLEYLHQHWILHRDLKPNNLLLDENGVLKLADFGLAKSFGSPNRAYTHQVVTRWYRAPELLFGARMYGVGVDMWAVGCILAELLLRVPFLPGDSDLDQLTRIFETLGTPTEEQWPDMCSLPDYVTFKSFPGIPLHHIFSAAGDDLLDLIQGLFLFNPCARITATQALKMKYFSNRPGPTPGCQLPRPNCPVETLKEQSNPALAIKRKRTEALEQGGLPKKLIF
T1 sequence (P51946 whole entry partner): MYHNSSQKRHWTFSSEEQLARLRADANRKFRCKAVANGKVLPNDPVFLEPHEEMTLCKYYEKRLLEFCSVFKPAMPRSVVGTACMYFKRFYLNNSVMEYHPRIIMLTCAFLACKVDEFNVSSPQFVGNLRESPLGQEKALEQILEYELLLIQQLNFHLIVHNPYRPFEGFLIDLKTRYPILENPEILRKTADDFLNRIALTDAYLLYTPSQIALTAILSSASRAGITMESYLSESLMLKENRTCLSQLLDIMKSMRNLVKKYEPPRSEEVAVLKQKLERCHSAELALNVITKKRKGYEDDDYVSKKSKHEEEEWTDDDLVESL
T1 sequence (P51948 whole entry partner): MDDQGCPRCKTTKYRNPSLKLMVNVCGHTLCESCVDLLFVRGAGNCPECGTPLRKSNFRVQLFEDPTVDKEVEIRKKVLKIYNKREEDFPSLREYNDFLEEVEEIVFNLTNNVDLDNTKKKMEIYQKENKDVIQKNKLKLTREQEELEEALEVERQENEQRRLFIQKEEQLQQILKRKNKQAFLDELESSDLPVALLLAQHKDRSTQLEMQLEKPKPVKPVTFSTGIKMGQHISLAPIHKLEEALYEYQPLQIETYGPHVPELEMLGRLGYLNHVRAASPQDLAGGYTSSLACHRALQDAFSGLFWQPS
T3 sequence (P53350 whole entry): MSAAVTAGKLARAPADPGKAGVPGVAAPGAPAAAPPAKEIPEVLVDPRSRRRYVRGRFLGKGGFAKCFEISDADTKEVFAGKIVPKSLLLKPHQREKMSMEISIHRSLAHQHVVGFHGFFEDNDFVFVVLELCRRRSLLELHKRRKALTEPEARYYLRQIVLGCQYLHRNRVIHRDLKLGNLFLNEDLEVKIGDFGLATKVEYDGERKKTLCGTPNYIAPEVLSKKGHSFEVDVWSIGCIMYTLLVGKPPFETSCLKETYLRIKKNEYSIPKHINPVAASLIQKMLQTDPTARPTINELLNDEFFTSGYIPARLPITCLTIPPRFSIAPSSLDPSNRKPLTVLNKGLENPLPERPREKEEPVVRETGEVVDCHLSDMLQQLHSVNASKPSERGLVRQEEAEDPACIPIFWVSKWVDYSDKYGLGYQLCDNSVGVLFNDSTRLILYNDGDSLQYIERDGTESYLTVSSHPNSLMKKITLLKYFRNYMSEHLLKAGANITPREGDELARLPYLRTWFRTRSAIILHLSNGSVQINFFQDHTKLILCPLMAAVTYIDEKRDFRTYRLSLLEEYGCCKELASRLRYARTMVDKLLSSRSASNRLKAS

As to `CC1(C)c2[nH]nc(NC(=O)C3([Si](C)(C)C)CCC3)c2CN1C(=O)Nc1c(F)ccc2cc(Cl)oc12` [IV-1063, N-(2-Chloro-6-fluorobenzofuran-7-yl)-6,6-dimethyl-3-[1-(trimethylsilyl)cyclobutanecarboxamido]-4,6-dihydropyrrolo[3,4-c]pyrazole-5(1H)-carboxamide], the results for the inhibition constant Ki at CDK7, at CDK2 and at PLK1 were not above 50 nM, not below 1000 nM and not below 5000 nM, respectively.
